Source: publication PMC5885031, “Chlamydia trachomatis dapF Encodes a Bifunctional Enzyme Capable of Both D-Glutamate Racemase and Diaminopimelate Epimerase Activities” (mBio, 2018)

Experiments:
Format in all cases: biochemical
[1] = molecular target: T1, DapFCT-His (chlamydial DapF, DAP epimerase) (Chlamydia trachomatis, UniProt B0B802); experiment: glutamate racemase assay coupled to L-glutamate dehydrogenase (NADPH, […] nm); conditions: 20 mM D-Glu, 10 uM PLP, 10 mM MgCl2, 20 mM Tris-Cl pH 8.0, 37 C; racemization to L-Glu
T1 construct: 6-His tag at 5' end (N-terminal), tag not removed; pTBSG vector, E. coli BL21(DE3); Ni-NTA purified; ~32 kDa
T1 sequence (B0B802 1-275): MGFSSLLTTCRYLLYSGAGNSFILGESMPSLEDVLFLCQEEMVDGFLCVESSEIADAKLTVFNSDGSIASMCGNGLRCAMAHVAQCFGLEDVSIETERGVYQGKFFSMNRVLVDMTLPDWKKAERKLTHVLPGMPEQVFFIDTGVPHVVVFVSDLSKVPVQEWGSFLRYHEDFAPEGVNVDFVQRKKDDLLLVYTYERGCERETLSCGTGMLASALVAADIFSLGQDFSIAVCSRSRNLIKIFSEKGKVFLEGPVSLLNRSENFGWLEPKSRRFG

[2] = molecular target: T1, DapFCT-His (chlamydial DapF, DAP epimerase); experiment: as above; conditions: 10 mM D-Glu as substrate, 10 uM PLP, 10 mM MgCl2, 20 mM Tris-Cl pH 8.0, 37 C; competing substrate
[3] = molecular target: T1, DapFCT-His (chlamydial DapF, DAP epimerase); experiment: glutamate racemase coupled assay with and without PLP; conditions: 10 uM PLP, D-Glu as substrate, 10 mM MgCl2, 20 mM Tris-Cl pH 8.0, 37 C; required for racemase activity

N[C@H](CCC(=O)O)C(=O)O [D-Glu]
glutamate racemase assay coupled to L-glutamate dehydrogenase (NADPH, 340 nm) [1]: Purified DapFCT-His was assayed for glutamate racemase activity with D-Glu as the substrate

N[C@@H](CCC[C@H](N)C(=O)O)C(=O)O [L,L-DAP]
% decrease of glutamate racemase activity at 10 mM L,L-DAP [2]: 47%

Cc1ncc(COP(=O)(O)O)c(C=O)c1O [pyridoxal phosphate]
glutamate racemase coupled assay with and without PLP [3]: D-Glu racemization to L-Glu was found to be PLP dependent (Fig. 4a)
